Our source for the TGI values is PubChem BioAssay (NCI).

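Assay format: 96-well plates, 48-hour exposure. TGI is the concentration that stops growth completely.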

Some test systems named below: A498 renal; A549 NSCLC; ACHN renal; CCRF-CEM leukemia; EKVX NSCLC; HCC-2998 colon; HCT-116 colon; HCT-15 colon; M14 melanoma; MCF7 breast; NCI-H226 lung; SF-539 CNS; SK-MEL-2 melanoma; SK-MEL-5 melanoma; SN12C renal; SR leukemia; TK-10 renal; UACC-62 melanoma; UO-31 renal; SF-268 CNS.
Holding throughout (test): NCI tumour cell line growth inhibition, 48 h

Regarding `O=[N+]([O-])/C=C/c1cn(CCCCCCCCCCCCn2cc(/C=C/[N+](=O)[O-])c3ccccc32)c2ccccc12`, the TGI with A498 renal, in the experiment with A549 NSCLC, with ACHN renal, in the experiment with CCRF-CEM leukemia, with EKVX NSCLC and in the experiment with HCC-2998 colon was greater than 100 µM each time. The TGI in the experiment on HCT-116 colon, in the experiment with HCT-15 colon, with M14 melanoma, with MCF7 breast, in the experiment with NCI-H226 lung and with SF-539 CNS was greater than 100 µM throughout. For the same compound, the TGI in the experiment on SK-MEL-2 melanoma, with SK-MEL-5 melanoma, with SN12C renal, in the experiment on SR leukemia, in the experiment on TK-10 renal and with UACC-62 melanoma was greater than 100 µM throughout. This compound gave a TGI in the experiment with UO-31 renal greater than 100 µM.

As for `Cc1ccc(S(=O)(=O)N2CCN(S(=O)(=O)c3ccc(C)cc3)CCN(S(=O)(=O)c3ccc(C)cc3)Cc3cc(Br)c(Br)cc3CN(S(=O)(=O)c3ccc(C)cc3)CC2)cc1`, the TGI in the experiment with A498 renal, with A549 NSCLC, in the experiment on ACHN renal, in the experiment with CCRF-CEM leukemia, in the experiment with EKVX NSCLC and in the experiment with HCC-2998 colon was greater than 100 µM throughout. In addition, the TGI in the experiment with HCT-116 colon is greater than 100 µM; in the experiment on HCT-15 colon, greater than 100 µM; in the experiment on M14 melanoma it was 43.2 µM; in the experiment with MCF7 breast, greater than 100 µM; in the experiment on NCI-H226 lung, greater than 100 µM; in the experiment on SF-268 CNS, greater than 100 µM. The TGI with SF-539 CNS, in the experiment on SK-MEL-5 melanoma, with SN12C renal, with SR leukemia, in the experiment on TK-10 renal and in the experiment on UACC-62 melanoma was greater than 100 µM in each case. For the same compound, the TGI in the experiment on UO-31 renal was greater than 100 µM.

Take `C[C@H]1C[C@H]2[C@@H]3CCC4=CC(=O)C=C[C@]4(C)C3=CC[C@]2(C)[C@@]1(O)C(=O)CO`: the TGI in the experiment on A498 renal, in the experiment with A549 NSCLC, in the experiment with ACHN renal, in the experiment with CCRF-CEM leukemia, in the experiment with EKVX NSCLC and in the experiment on HCC-2998 colon was greater than 100 µM each time. In addition, the TGI in the experiment on HCT-116 colon, in the experiment with HCT-15 colon, in the experiment on M14 melanoma, with MCF7 breast, in the experiment on NCI-H226 lung and with SF-268 CNS was greater than 100 µM each time. Moreover, the TGI in the experiment on SK-MEL-2 melanoma, with SK-MEL-5 melanoma, in the experiment with SN12C renal, with SR leukemia, in the experiment with TK-10 renal and in the experiment on UACC-62 melanoma was greater than 100 µM each time. Moreover, the TGI in the experiment on UO-31 renal is greater than 100 µM.

As to `c1ccc2c(-c3csc(-c4c[nH]c5ccccc45)n3)c[nH]c2c1`, the TGI in the experiment with A498 renal, in the experiment on A549 NSCLC, with ACHN renal, with EKVX NSCLC, in the experiment on HCC-2998 colon and in the experiment on HCT-116 colon was greater than 100 µM throughout. Moreover, the TGI with HCT-15 colon, with M14 melanoma, with MCF7 breast, in the experiment with NCI-H226 lung, in the experiment with SF-268 CNS and in the experiment with SF-539 CNS was greater than 100 µM each time. Moreover, the TGI with SK-MEL-2 melanoma was greater than 100 µM; in the experiment with SN12C renal it was greater than 100 µM; in the experiment on SR leukemia it was greater than 74.6 µM; in the experiment with TK-10 renal, greater than 100 µM; in the experiment on UACC-62 melanoma, greater than 100 µM; in the experiment on UO-31 renal, greater than 100 µM.

As to `C=CCNC(=O)CN(CC(=O)O)C1CCCCC1N(CC(=O)O)CC(=O)O` (stereo not given), the TGI in the experiment on A498 renal, in the experiment on A549 NSCLC, with ACHN renal, in the experiment on CCRF-CEM leukemia, with HCC-2998 colon and with HCT-116 colon was greater than 100 µM throughout. The TGI in the experiment on HCT-15 colon, in the experiment with MCF7 breast, in the experiment with NCI-H226 lung, in the experiment with SF-268 CNS, in the experiment with SF-539 CNS and in the experiment with SK-MEL-5 melanoma was greater than 100 µM throughout. The TGI in the experiment with SN12C renal, in the experiment on SR leukemia, with TK-10 renal, with UACC-62 melanoma and in the experiment on UO-31 renal was greater than 100 µM throughout.

For `Nc1ccc(-c2nc3ccc(F)cc3s2)cc1I`, the TGI in the experiment on A498 renal, with A549 NSCLC, in the experiment with ACHN renal, with CCRF-CEM leukemia, in the experiment with EKVX NSCLC and in the experiment on HCC-2998 colon was greater than 100 µM each time. In addition, the TGI in the experiment on HCT-116 colon, in the experiment on HCT-15 colon, in the experiment with M14 melanoma, with MCF7 breast, in the experiment with NCI-H226 lung and with SF-268 CNS was greater than 100 µM in each case. Also, the TGI in the experiment with SF-539 CNS, in the experiment with SK-MEL-2 melanoma, in the experiment with SK-MEL-5 melanoma, in the experiment on SN12C renal, in the experiment on SR leukemia and with UACC-62 melanoma was greater than 100 µM throughout. Besides, the TGI in the experiment with UO-31 renal is greater than 100 µM.

With `O=c1cc(CNC2CC3CCC2C3)[nH]c(=O)[nH]1` (stereo not given), the TGI in the experiment on A498 renal, in the experiment with A549 NSCLC, in the experiment on ACHN renal, with CCRF-CEM leukemia, with EKVX NSCLC and in the experiment on HCC-2998 colon was greater than 100 µM in each case. For the same compound, the TGI in the experiment with HCT-116 colon, in the experiment on HCT-15 colon, in the experiment with M14 melanoma, in the experiment with MCF7 breast, in the experiment with SF-268 CNS and in the experiment with SF-539 CNS was greater than 100 µM throughout. Moreover, the TGI in the experiment on SK-MEL-2 melanoma, with SK-MEL-5 melanoma, with SN12C renal, in the experiment with SR leukemia, in the experiment on TK-10 renal and in the experiment on UACC-62 melanoma was greater than 100 µM throughout. Also, the TGI in the experiment with UO-31 renal is greater than 100 µM.
